Laboratory results published in ChEMBL document CHEMBL1150712, “Plant anticancer agents, XLIII. (E,E)-7, 12-dioxo-octadeca-8, 10-dien-1-oic acid (ostopanic acid), a cytotoxic fatty acid from Ostodes Paniculata” (1987).
In brackets after ≈: the same amount, converted by molar mass.

Test system: P388
Experiment: Cytotoxicity against mouse P388 cells
Format: functional
Conditions: read-out: ED50 (the source's name)

Compound: CCCCCCC(=O)/C=C/C=C/C(=O)CCCCCC(=O)O [OSTOPANIC ACID]
- EC50: 1.5 µg/mL (≈ 4.86 µM)
